Measurements reported in patent EP0402717A1, “5-nitro-tetrahydropyrimidines and insecticides containing them for agricultural uses” (NIHON BAYER AGROCHEM K.K., priority 1989, dated 1990).

Legend:
Assay type in all cases: in vivo
[1] = system: Sogatella furcifera Horvath; test: Test on plant hoppers (spray on rice plants), white-backed rice planthopper; conditions: 48 h, read-out: Mortality (%) Whight bached rice planthopper
Method: (§1) A water dilution in a predetermined concentration of the active compound prepared as in Example 4 was sprayed onto rice plants, about 10 cm tall, grown in pots with a diameter of 12 cm in an amount of 10 ml per pot. The sprayed chemical was dried, and a wire net, 7 cm in diameter and 14 cm tall, was put over each of the pots. […] The mortality was then calculated.
(§2) In the same way as above, the mortality was calculated on Sogatella furcifera Horvath and organophosphorus-resistant Laodelphax striatellus Fallen.

NiIaparvata lugens Stal = test: Test on plant hoppers (spray on rice plants), brown rice planthopper; conditions: 48 h, read-out: Mortality (%) Brown rice planthopper
Method: as §1

[2] = system: Laodelphax striatellus Fallen; test: Test on plant hoppers (spray on rice plants), small brown planthopper; conditions: 48 h, read-out: Mortality (%) Small brown planthopper
Method: as §1, §2

For `CNC1=C([N+](=O)[O-])CN(C)CN1Cc1ccc(Cl)nc1` [Compound 8], the mortality at 500 ppm [1] was 100%, the mortality at 500 ppm (NiIaparvata lugens Stal) was 100% and the mortality at 500 ppm [2] was 100%.

With `CCCCCCCCCCCCN1CC([N+](=O)[O-])=C(NC)N(Cc2ccc(Cl)nc2)C1` [Compound 41] the mortality at 500 ppm [1] was 100%, the mortality at 500 ppm (NiIaparvata lugens Stal) was 100% and the mortality at 500 ppm [2] was 100%.

`CN1CCN2C(=O)CCC([N+](=O)[O-])=C12` [Compound C-1] gave a mortality at 500 ppm [1] of 0%, a mortality at 500 ppm (NiIaparvata lugens Stal) of 0% and a mortality at 500 ppm [2] of 0%.

Work on `O=c1[nH]c(=O)n2c(c1[N+](=O)[O-])NCC2` [Compound C-2] yielded a mortality at 500 ppm [1] of 0%, a mortality at 500 ppm (NiIaparvata lugens Stal) of 0% and a mortality at 500 ppm [2] of 0%.
